The term pIC50 denotes the IC50 on a negative log10 scale, so that one unit is a factor of ten. A low value points to a high IC50. As a reminder, the pKi is −log10 of the Ki, conventionally taken in molar units. The low end stands for a high Ki, the high end for a low Ki.

The target of assay [1] is T1, Purine nucleoside phosphorylase (Bos taurus, UniProt P55859).
T1 sequence (P55859 whole entry): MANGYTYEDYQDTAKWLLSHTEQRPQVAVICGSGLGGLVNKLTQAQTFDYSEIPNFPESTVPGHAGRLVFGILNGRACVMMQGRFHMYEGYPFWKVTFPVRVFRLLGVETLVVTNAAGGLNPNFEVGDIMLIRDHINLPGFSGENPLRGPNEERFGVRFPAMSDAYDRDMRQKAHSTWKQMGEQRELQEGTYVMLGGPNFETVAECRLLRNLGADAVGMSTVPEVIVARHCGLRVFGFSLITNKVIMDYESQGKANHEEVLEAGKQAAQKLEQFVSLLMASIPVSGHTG
As to the kind of experiment: Inhibition of purine nucleoside phosphorylase against the enzyme from calf spleen in 1 mM phosphate.

Assay [2] concerns the target T1, Purine nucleoside phosphorylase. The experiment in a line: Inhibition of Purine nucleoside phosphorylase was evaluated against the enzyme from calf spleen in 50 mM phosphate.
Assay [3] deals with T2, Purine nucleoside phosphorylase (Homo sapiens, UniProt P00491).
T2 sequence (P00491 whole entry): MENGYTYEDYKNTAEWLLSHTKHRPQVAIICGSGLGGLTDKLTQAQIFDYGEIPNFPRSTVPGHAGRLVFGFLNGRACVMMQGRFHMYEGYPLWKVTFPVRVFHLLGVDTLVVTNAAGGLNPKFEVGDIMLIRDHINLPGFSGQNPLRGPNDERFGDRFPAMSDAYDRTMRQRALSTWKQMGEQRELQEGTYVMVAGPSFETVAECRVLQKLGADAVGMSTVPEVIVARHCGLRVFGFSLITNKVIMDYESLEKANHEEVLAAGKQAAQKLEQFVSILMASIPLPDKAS
As to the kind of experiment: Inhibition of Purine nucleoside phosphorylase was evaluated against the enzyme from Human erythrocytic in 50 mM phosphate. It counts as tissue-based.

Assay [4] addresses T1, Purine nucleoside phosphorylase. The experiment in a line: Inhibition of Purine nucleoside phosphorylase was evaluated against the enzyme from calf spleen in 1 mM phosphate. Format: tissue-based.

pIC50, pKi: −log10 of the molar value.

`Nc1nc(O)c2[nH]cc(Cc3cc(Cl)cc(Cl)c3Cl)c2n1`: the results for the pIC50 in assay [1] and in assay [2] were 6.62 and 5.00, respectively.
Compound `Nc1nc(O)c2[nH]c(Nc3cccnc3)nc2n1` had a pIC50 in assay [3] of 4.66.
Regarding `Nc1nc(O)c2c(n1)CC(Cc1ccsc1)=N2`, the pIC50 in assay [3] is 7.17.
The same measure, in the same setting: the same measure for `Nc1nc(O)c2c(n1)CC(NCc1ccsc1)=N2`: 6.20; for `Cc1ccsc1CC1=Nc2c(O)nc(N)nc2C1`: 4.32.
Compound `Nc1nc2c(Cc3cccc(Oc4ccccc4)c3)c[nH]c2c(=O)[nH]1` gave a pIC50 in assay [2] of 6.13.
Compound `Nc1nc(O)c2c(n1)CC(NCc1cccs1)=N2` had a pIC50 in assay [3] of 6.00.
In turn, `Nc1nc(O)c2c(n1)CC(NCc1ccco1)=N2` had a pIC50 in assay [3] of 6.12.
Same read-out and setting: for `Nc1nc(O)c2[nH]c(Cc3ccsc3)nc2n1` the value was 4.96; for `Nc1nc(O)c2[nH]c(Cc3ccco3)nc2n1`, 4.75.
Regarding `Cc1ccsc1Cc1nc2nc(N)[nH]c(=O)c2[nH]1`, in assay [3], the pIC50 was 4.32.
Consider `NC1=NC(=O)C2NC=C(Cc3ccsc3)C2N1` (configuration not stated), for which, in assay [1], the pIC50 was 10.17. Also, the pKi in assay [4] is 7.82.
`Nc1nc(O)c2c(n1)CC(Cc1ccccc1)=N2`: the pIC50 in assay [3] is 7.07.
In turn, `NC1=NC(=O)C2NC(N)=C(Cc3ccsc3)C2N1` (configuration not stated) showed a pIC50 in assay [1] of 9.20.
Turning to `Nc1nc(O)c2[nH]c(Cc3cccs3)nc2n1`, the pIC50 in assay [3] was 4.96.
Take `Nc1nc2c(Cc3cccc(F)c3)c[nH]c2c(=O)[nH]1`: the pIC50 in assay [1] is 7.62; in assay [2] it was 6.66.
With `Cc1cccc(Cc2c[nH]c3c(=O)[nH]c(N)nc23)c1`, the pIC50 in assay [1] was 7.24; in assay [2] it was 6.57.
In the same order, the values of `Nc1nc2c(Cc3ccc(Cl)c(Cl)c3)c[nH]c2c(=O)[nH]1` are 7.77 and 6.60.
In the case of `NC1=NC(=O)C2NC=C(Cc3ccccc3)C2N1` (configuration not stated), the pKi is 7.00 in assay [2] and 7.92 in assay [4].
Turning to `Nc1nc(O)c2[nH]c(Cc3ccccc3)nc2n1`, the pIC50 in assay [3] was 4.53.
As for `COc1cccc(Cc2c[nH]c3c(O)nc(N)nc23)c1`, the pIC50 in assay [1] was 7.09; in assay [2], 6.18.
The corresponding values for `Nc1nc(O)c2nc(N)n(Cc3cccs3)c2n1` are 6.80 and 6.80.
The corresponding values for `Nc1nc2c(Cc3ccccc3O)c[nH]c2c(=O)[nH]1` are 6.57 and 5.70.
The corresponding values for `Nc1nc2c(Cc3cccc(Cl)c3)c[nH]c2c(=O)[nH]1` are 7.70 and 6.82.
Regarding `Nc1nc(O)c2c(n1)CC(NCc1ccccc1)=N2`, the pIC50 in assay [3] was 6.07.
The same measure, in the same setting: the same measure for `Cc1ccsc1CNC1=Nc2c(O)nc(N)nc2C1`: 5.39.
The same measure, in the same setting: the same measure for `Nc1nc(O)c2c(n1)CC(Cc1ccco1)=N2`: 7.24.
Consider `Nc1nc2c(Cc3ccc(I)cc3)c[nH]c2c(=O)[nH]1`, for which the pIC50 in assay [1] is 7.64; in assay [2], 6.57.
Compound `Nc1nc(O)c2c(n1)CC(Cc1cccs1)=N2` had a pIC50 in assay [3] of 7.52.
On the same count and under the same terms, the same measure for `Nc1nc2nc(NCc3ccccc3)[nH]c2c(=O)[nH]1`: 6.33.
Still for that read-out and setting: for `Nc1nc2nc(-c3cccnc3)[nH]c2c(=O)[nH]1` the value was 4.24; for `Cc1ccsc1CNc1nc2[nH]c(N)nc(O)c-2n1`, 5.39.
`Nc1nc(O)c2[nH]cc(Cc3ccco3)c2n1`: the pIC50 in assay [1] was 7.08.
In assay [3], `Nc1nc(O)c2[nH]c(NCc3ccco3)nc2n1` had a pIC50 of 6.60.
Regarding `Nc1nc(O)c2[nH]c(NCc3cccs3)nc2n1`, in assay [3], the pIC50 was 6.80. This pIC50 lies 0.20 log units higher than the previous one.
`Nc1nc(O)c2c(n1)CC(c1cccnc1)=N2` gave a pIC50 in assay [2] of 9.80.
For the compound `Nc1nc2c(Cc3cccc(C(F)(F)F)c3)c[nH]c2c(=O)[nH]1`, the pIC50 is 7.44 in assay [1] and 6.72 in assay [2].
In assay [3], `Nc1nc2nc(NCc3ccsc3)[nH]c2c(=O)[nH]1` had a pIC50 of 7.07.
`Nc1nc(O)c2[nH]cc(Cc3ccsc3)c2n1` had a pIC50 in assay [1] of 7.60.
Consider `Nc1nc(O)c2[nH]cc(Cc3ccc(O)cc3)c2n1`, for which the figures for the pIC50 in assay [1] and in assay [2] were 6.59 and 5.64, respectively.
In the same order, the values of `Nc1nc(O)c2[nH]cc(Cc3ccccc3Cl)c2n1` are 6.92 and 5.60.
The corresponding values for `Nc1nc2c(Cc3cccnc3)c[nH]c2c(=O)[nH]1` [PELDESINE] are 7.60 and 6.72.

These data come from ChEMBL document CHEMBL1126675, “Structure-based design of inhibitors of purine nucleoside phosphorylase. 1. 9-(arylmethyl) derivatives of 9-deazaguanine” (J Med Chem, 1993).
